Reference: US20240209028A1, “CNP COMPOUNDS” (priority 2022, published 2024)

Assay: PK after i.v. and s.c. administration to domestic LYD pig
Details: female, domestic LYD pig, pig, in vivo, sc
Procedure: The purpose of this study was to investigate pharmacokinetic and pharmacodynamic properties after intravenous (i.v.) and subcutaneous (s.c.) administration to Gottingen Minipig and domestic LYD pig, and to estimate bioavailability after s.c. dosing. Quantitative plasma analysis of CNP and cGMP levels were performed as described in
Animals and dosing: The pharmacokinetic and pharmacodynamic studies in Gottingen Minipig or domestic LYD pig were conducted at CRO Minerva Imaging or Novo Nordisk A/S, respectively. CNP compounds were dosed to normal female 1) Gottingen minipigs 6-12 months of age with an average weight of 22 kg or 2) domestic LYD pigs 4-5 months of age with and average weight of 80 kg. At least one week prior to dosing, permanent central venous catheters were implanted for blood sampling and intravenous (i.v.) dosing. For subcutaneous (s.c.) dosing, the pigs were ultrasound scanned and the optimal injection area laterally on the neck marked by a permanent tattoo. An insulin pen (NovoPen Echo or NovoPen 4) and insulin needle (NovoFine 32G/4 mm or NovoTwist 32G/5 mm) were used for accurate deposition of the CNP formulations in the subcutaneous fat tissue with the needle perpendicular to the skin.
CNP compounds were formulated according to the principles in General Methods of Preparation—Method G and were either A) 8 mM sodium phosphate, 250 mM glycerol, pH 6.5, B) 5 mM sodium acetate, 250 mM glycerol, pH 4.0, C) 5 mM sodium acetate, 240 mM propylene glycol, pH=4.0, D) 8 mM sodium phosphate, 250 mM glycerol, pH 7.5 or E) 20 mM sodium phosphate, 223 mM propylene glycol, pH 6.0.
Intravenously, the CNP compounds were dosed at 30-60 nmol/kg to Minipig and 15-43 nmol/kg to domestic pig using formulations A-E. Subcutaneously, the CNP compounds were dosed at 55-62 nmol/kg to Minipig and 20-30 nmol/kg to domestic pig using formulations A-D.
Sampling: Blood samples of approximately 1 mL were collected pre dose and up to 14 days post dose into EDTA-coated tubes (8 mM) for cGMP and CNP compound analysis by LC-MS. In few instances, cGMP was only analysed up to 48 hours post dose after intravenous dosing in domestic LYD pig. The blood samples were kept on wet ice for maximum 30 minutes until centrifugation for 10 minutes at 4° C. and minimum 1500G, and the plasma samples were stored at −20° C. until analysis.
Plasma concentration-time profiles were analyzed by non-compartmental PK analysis using Phoenix WinNonlin 8.1, Pharsight Inc., Mountain View, CA, USA. Calculation of the area under the plasma concentration-time curve (AUC) was based on the “linear up log down” method, and uniform weighting was used for estimation of the terminal rate constant (λz). S.c. bioavailability (F) was calculated as the dose-normalized AUC (AUC/dose) after s.c. administration divided by the AUC/dose after i.v. administration. […]

SMILES: CC[C@H](C)[C@@H]1NC(=O)[C@H](CCCNC(=N)N)NC(=O)[C@H](CC(=O)O)NC(=O)[C@H](CC(C)C)NC(=O)[C@H](CCCCN)NC(=O)[C@H](CC(C)C)NC(=O)CNC(=O)[C@H](Cc2ccccc2)NC(=O)[C@@H](NC(=O)CNC(=O)[C@H](CCCCN)NC(=O)[C@H](CO)NC(=O)[C@H](CC(C)C)NC(=O)CNC(=O)[C@H](CCCCN)NC(=O)[C@H](CCCCN)NC(=O)[C@H](CCC(N)=O)NC(=O)[C@H](C)NC(=O)CNC(=O)[C@H](Cc2c[nH]cn2)NC(=O)[C@H](CCC(=O)O)NC(=O)COCCOCCNC(=O)COCCOCCNC(=O)CC[C@H](NC(=O)CCCCCCCCCCCCCCCCC(=O)O)C(=O)O)CSSC[C@@H](C(=O)O)NC(=O)CNC(=O)[C@H](CC(C)C)NC(=O)CNC(=O)[C@H](CO)NC(=O)[C@H](CC(C)C)NC(=O)[C@H](CO)NC(=O)CNC1=O [compound 1235]
- bioavailability: 25%
